Data from patent US12662491B2 (Redona Therapeutics, Inc., priority 2020, dated 2026).

The compounds below were run against T1, Zcchc11 enzyme (Homo sapiens, UniProt Q5TAX3) (assay: TUTase assay (Zcchc11 assay, Lin28a-dependent polyuridylation of pre-let-7)). Conditions: Lin28a-dependent Zcchc11 (Z11) TUTase assay; read-out: Potency Lin28a-dep Z11 IC50.
T1 construct: made in house; host or cells: HEK293 cells (Zcchc11); E. coli Rosetta II (LIN28A)
T1 sequence (Q5TAX3 212-1420): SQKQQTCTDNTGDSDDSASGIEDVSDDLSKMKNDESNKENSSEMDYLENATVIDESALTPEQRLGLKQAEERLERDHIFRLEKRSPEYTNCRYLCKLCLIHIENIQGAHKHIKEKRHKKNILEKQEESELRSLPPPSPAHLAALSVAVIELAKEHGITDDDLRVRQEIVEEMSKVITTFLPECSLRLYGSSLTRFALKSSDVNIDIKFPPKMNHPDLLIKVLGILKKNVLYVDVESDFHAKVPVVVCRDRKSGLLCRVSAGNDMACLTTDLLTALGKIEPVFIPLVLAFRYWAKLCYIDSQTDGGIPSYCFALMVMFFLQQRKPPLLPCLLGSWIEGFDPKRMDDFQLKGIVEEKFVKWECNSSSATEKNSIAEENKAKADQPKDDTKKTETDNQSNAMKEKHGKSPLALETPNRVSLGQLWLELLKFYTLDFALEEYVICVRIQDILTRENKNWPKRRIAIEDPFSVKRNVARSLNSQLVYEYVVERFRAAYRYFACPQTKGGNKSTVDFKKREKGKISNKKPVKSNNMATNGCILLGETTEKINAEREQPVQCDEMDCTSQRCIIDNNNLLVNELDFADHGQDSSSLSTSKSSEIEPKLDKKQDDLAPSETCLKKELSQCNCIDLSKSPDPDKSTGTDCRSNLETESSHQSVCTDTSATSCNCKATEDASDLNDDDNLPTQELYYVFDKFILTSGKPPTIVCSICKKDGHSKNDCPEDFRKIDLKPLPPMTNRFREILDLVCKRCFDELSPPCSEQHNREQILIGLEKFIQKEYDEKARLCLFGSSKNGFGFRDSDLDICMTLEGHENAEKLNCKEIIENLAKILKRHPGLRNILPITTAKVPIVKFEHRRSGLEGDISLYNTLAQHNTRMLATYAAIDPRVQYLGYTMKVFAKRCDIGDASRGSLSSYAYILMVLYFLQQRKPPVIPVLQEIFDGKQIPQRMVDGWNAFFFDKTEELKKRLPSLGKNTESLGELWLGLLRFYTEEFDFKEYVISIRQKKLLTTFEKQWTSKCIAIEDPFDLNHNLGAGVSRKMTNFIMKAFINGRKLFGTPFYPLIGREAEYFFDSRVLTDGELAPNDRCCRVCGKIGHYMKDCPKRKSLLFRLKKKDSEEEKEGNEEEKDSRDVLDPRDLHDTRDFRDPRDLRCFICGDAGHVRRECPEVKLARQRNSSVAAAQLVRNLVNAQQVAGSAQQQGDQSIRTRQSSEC
Type: biochemical
Outline: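 Human Zcchc11 residues 212-1420 (HEK293-expressed, MBP tag cleaved, C-terminal FLAG) at 0.2 nM, with 10 nM full-length human LIN28A and 2 nM 5′-fluorescein pre-let-7, preincubated with compound 30 min at room temperature. Reaction started with 5 uM UTP plus 4 nM 3′-rhodamine A20 quench probe; fluorescein loss read kinetically, IC50 from initial rates.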

`CCc1ccccc1-n1cc(C(=O)O)c(=O)c2cc(F)c(N3CCC[C@@H]3COc3ccccn3)cc21` [Example 404, (R)-1-(2-ethylphenyl)-6-fluoro-4-oxo-7-(2-((pyridin-2-yloxy)methyl)pyrrolidin-1-yl)-1,4-dihydroquinoline-3-carboxylic acid] and `COCc1ccccc1-n1cc(C(=O)O)c(=O)c2cc(F)c(N3CCC[C@@H]3COc3ccccn3)cc21` [Example 407, (R)-6-fluoro-1-(2-(methoxymethyl)phenyl)-4-oxo-7-(2-((pyridin-2-yloxy)methyl)pyrrolidin-1-yl)-1,4-dihydroquinoline-3-carboxylic acid] fall in the same range of IC50: 1000 to 10000 nM for the first, 1000 to 10000 nM for the second.

`O=C(O)c1cn(-c2ccc(OCCO)cc2)c2cc(N3CCC[C@@H]3COc3ccccn3)c(F)cc2c1=O` [Example 405, (R)-6-fluoro-1-(4-(2-hydroxyethoxy)phenyl)-4-oxo-7-(2-((pyridin-2-yloxy)methyl)pyrrolidin-1-yl)-1,4-dihydroquinoline-3-carboxylic acid] and `COCCOc1ccc(-n2cc(C(=O)O)c(=O)c3cc(F)c(N4CCC[C@@H]4COc4ccccn4)cc32)cc1` [Example 406, (R)-6-fluoro-1-(4-(2-methoxyethoxy)phenyl)-4-oxo-7-(2-((pyridin-2-yloxy)methyl)pyrrolidin-1-yl)-1,4-dihydroquinoline-3-carboxylic acid] cannot be ordered by IC50: at most 1000 nM for the first, at most 1000 nM for the second.

`O=C(O)c1cn(-c2ccc(O)c(Cl)c2)c2cc(N3CCC[C@@H]3COc3ccccn3)c(F)cc2c1=O` [Example 408, (R)-1-(3-chloro-4-hydroxyphenyl)-6-fluoro-4-oxo-7-(2-((pyridin-2-yloxy)methyl)pyrrolidin-1-yl)-1,4-dihydroquinoline-3-carboxylic acid] and `O=C(O)c1cn(-c2ccc(O)c(Cl)c2)c2cc(N3CCC[C@@H]3COc3ccccn3)c(Cl)cc2c1=O` [Example 409, (R)-6-chloro-1-(3-chloro-4-hydroxyphenyl)-4-oxo-7-(2-((pyridin-2-yloxy)methyl)pyrrolidin-1-yl)-1,4-dihydroquinoline-3-carboxylic acid] cannot be ordered by IC50: at most 1000 nM for the first, at most 1000 nM for the second.

`O=C(O)c1cn(-c2ccc(O)nn2)c2cc(N3CCC[C@@H]3COc3ccccn3)c(F)cc2c1=O` [Example 410, (R)-6-fluoro-1-(6-hydroxypyridazin-3-yl)-4-oxo-7-(2-((pyridin-2-yloxy)methyl)pyrrolidin-1-yl)-1,4-dihydroquinoline-3-carboxylic acid] and `O=C(O)c1cn(-c2ccc(O)nc2)c2cc(N3CCC[C@@H]3COc3ncccc3Cl)c(Cl)cc2c1=O` [Example 414, (R)-6-chloro-7-(2-(((3-chloropyridin-2-yl)oxy)methyl)pyrrolidin-1-yl)-1-(6-hydroxy-pyridin-3-yl)-4-oxo-1,4-dihydroquinoline-3-carboxylic acid] cannot be ordered by IC50: 1000 to 10000 nM for the first, at most 1000 nM for the second.

`O=C(O)c1cn(-c2cnc(CO)cn2)c2cc(N3CCC[C@@H]3COc3ncccc3Cl)c(Cl)cc2c1=O` [Example 411, (R)-6-chloro-7-(2-(((3-chloropyridin-2-yl)oxy)methyl)pyrrolidin-1-yl)-1-(5-(hydroxy-methyl)pyrazin-2-yl)-4-oxo-1,4-dihydroquinoline-3-carboxylic acid] and `CN(C)c1cnc(-n2cc(C(=O)O)c(=O)c3cc(Cl)c(N4CCC[C@@H]4COc4ncccc4Cl)cc32)cn1` [Example 424, (R)-6-chloro-7-(2-(((3-chloropyridin-2-yl)oxy)methyl)pyrrolidin-1-yl)-1-(5-(dimethylamino)pyrazin-2-yl)-4-oxo-1,4-dihydroquinoline-3-carboxylic acid] cannot be ordered by IC50: at most 1000 nM for the first, at most 1000 nM for the second.

`Cc1cccnc1OC[C@H]1CCCN1c1cc2c(cc1F)c(=O)c(C(=O)O)cn2-c1ccc(NS(C)(=O)=O)cc1` [Example 412, (R)-6-fluoro-7-(2-(((3-methylpyridin-2-yl)oxy)methyl)pyrrolidin-1-yl)-1-(4-(methyl-sulfonamido)phenyl)-4-oxo-1,4-dihydroquinoline-3-carboxylic acid] and `CNc1ccc(-n2cc(C(=O)O)c(=O)c3cc(Cl)c(N4CCC[C@@H]4COc4ncccc4Cl)cc32)cn1` [Example 417, (R)-6-chloro-7-(2-(((3-chloropyridin-2-yl)oxy)methyl)pyrrolidin-1-yl)-1-(6-(methylamino)pyridin-3-yl)-4-oxo-1,4-dihydroquinoline-3-carboxylic acid] cannot be ordered by IC50: at most 1000 nM for the first, at most 1000 nM for the second.

`COCCNc1ccc(-n2cc(C(=O)O)c(=O)c3cc(Cl)c(N4CCC[C@@H]4COc4ncccc4Cl)cc32)cn1` [Example 413, (R)-6-chloro-7-(2-(((3-chloropyridin-2-yl)oxy)methyl)pyrrolidin-1-yl)-1-(6-((2-methoxyethyl)amino)pyridin-3-yl)-4-oxo-1,4-dihydroquinoline-3-carboxylic acid] and `CN(C)CCNc1ccc(-n2cc(C(=O)O)c(=O)c3cc(Cl)c(N4CCC[C@@H]4COc4ncccc4Cl)cc32)cn1` [Example 416, (R)-6-chloro-7-(2-(((3-chloropyridin-2-yl)oxy)methyl)pyrrolidin-1-yl)-1-(6-((2-(dimethylamino)ethyl)amino)pyridin-3-yl)-4-oxo-1,4-dihydroquinoline-3-carboxylic acid] cannot be ordered by IC50: at most 1000 nM for the first, at most 1000 nM for the second.

`COCCOc1ccc(-n2cc(C(=O)O)c(=O)c3cc(Cl)c(N4CCC[C@@H]4COc4ncccc4Cl)cc32)cn1` [Example 415, (R)-6-chloro-7-(2-(((3-chloropyridin-2-yl)oxy)methyl)pyrrolidin-1-yl)-1-(6-(2-methoxy-ethoxy)pyridin-3-yl)-4-oxo-1,4-dihydroquinoline-3-carboxylic acid] and `CN(C)CCOc1ccc(-n2cc(C(=O)O)c(=O)c3cc(Cl)c(N4CCC[C@@H]4COc4ncccc4Cl)cc32)cn1` [Example 418, (R)-6-chloro-7-(2-(((3-chloropyridin-2-yl)oxy)methyl)pyrrolidin-1-yl)-1-(6-(2-(dimethylamino)ethoxy)pyridin-3-yl)-4-oxo-1,4-dihydroquinoline-3-carboxylic acid] cannot be ordered by IC50: at most 1000 nM for the first, at most 1000 nM for the second.

`COCCOc1cnc(-n2cc(C(=O)O)c(=O)c3cc(Cl)c(N4CCC[C@@H]4COc4ncccc4Cl)cc32)cn1` [Example 419, (R)-6-chloro-7-(2-(((3-chloropyridin-2-yl)oxy)methyl)pyrrolidin-1-yl)-1-(5-(2-methoxy-ethoxy)pyrazin-2-yl)-4-oxo-1,4-dihydroquinoline-3-carboxylic acid] and `COCCN(C)c1ccc(-n2cc(C(=O)O)c(=O)c3cc(Cl)c(N4CCC[C@@H]4COc4ncccc4Cl)cc32)cn1` [Example 420, (R)-6-chloro-7-(2-(((3-chloropyridin-2-yl)oxy)methyl)pyrrolidin-1-yl)-1-(6-((2-methoxy-ethyl)(methyl)amino)pyridin-3-yl)-4-oxo-1,4-dihydroquinoline-3-carboxylic acid] cannot be ordered by IC50: at most 1000 nM for the first, at most 1000 nM for the second.

`CN(C)c1ccc(-n2cc(C(=O)O)c(=O)c3cc(Cl)c(N4CCC[C@@H]4COc4ncccc4Cl)cc32)cn1` [Example 421, (R)-6-chloro-7-(2-(((3-chloropyridin-2-yl)oxy)methyl)pyrrolidin-1-yl)-1-(6-(dimethyl-amino)pyridin-3-yl)-4-oxo-1,4-dihydroquinoline-3-carboxylic acid] and `O=C(O)c1cn(-c2ccc(N3CCC3)nc2)c2cc(N3CCC[C@@H]3COc3ncccc3Cl)c(Cl)cc2c1=O` [Example 422, (R)-1-(6-(azetidin-1-yl)pyridin-3-yl)-6-chloro-7-(2-(((3-chloropyridin-2-yl)oxy)methyl)pyrrolidin-1-yl)-4-oxo-1,4-dihydroquinoline-3-carboxylic acid] cannot be ordered by IC50: at most 1000 nM for the first, at most 1000 nM for the second.

With `O=C(O)c1cn(-c2ccc(N3CC(O)C3)nc2)c2cc(N3CCC[C@@H]3COc3ncccc3Cl)c(Cl)cc2c1=O` [Example 423, (R)-6-chloro-7-(2-(((3-chloropyridin-2-yl)oxy)methyl)pyrrolidin-1-yl)-1-(6-(3-hydroxy-azetidin-1-yl)pyridin-3-yl)-4-oxo-1,4-dihydroquinoline-3-carboxylic acid] the IC50 was at most 1000 nM.
